Measured values from ChEMBL document CHEMBL1127363, “Structure-activity relationship studies of N-sulfonyl analogs of cocaine: role of ionic interaction in cocaine binding” (J Med Chem, 1994).

Legend:
Rattus norvegicus [1] = species on record: Rattus norvegicus; assay: Compound was tested to inhibit high affinity uptake of [3H]- -dopamine into striatal nerve endings (synaptosomes); assay type: functional, Brain
[2] = biological target: T1, Sodium-dependent dopamine transporter (Rattus norvegicus, UniProt P23977); assay: Binding affinity was tested by measuring its ability to displace [3H]-mazindol binding against dopamine transporter (DAT) of rat striatal membranes
[3] = biological target: Sodium-dependent dopamine transporter (Rattus norvegicus) (UniProt P23977); assay: Inhibition of [3H]mazindol binding to dopamine transporter (DAT) of rat striatal membranes at 100 uM; assay type: cell membranes; conditions: Membrane
Rattus norvegicus [4] = species on record: Rattus norvegicus; assay: Inhibition of high affinity uptake of [3H]- -dopamine into striatal nerve endings (synaptosomes) at 300 uM; assay type: functional; conditions: Brain
Rattus norvegicus [5] = species on record: Rattus norvegicus; assay: Compound was tested to inhibit high affinity uptake of [3H]- -Dopamine into striatal nerve endings (synaptosomes); assay type: functional, Brain
[6] = biological target: T1, Sodium-dependent dopamine transporter; assay: Binding affinity was tested by measuring its ability to displace [3H]mazindol binding against dopamine transporter (DAT) of rat striatal membranes
Rattus norvegicus [7] = species on record: Rattus norvegicus; assay: Compound was tested to inhibit high affinity uptake of [3H]dopamine into striatal nerve endings (synaptosomes); assay type: functional, Brain

T1 sequence (P23977 whole entry): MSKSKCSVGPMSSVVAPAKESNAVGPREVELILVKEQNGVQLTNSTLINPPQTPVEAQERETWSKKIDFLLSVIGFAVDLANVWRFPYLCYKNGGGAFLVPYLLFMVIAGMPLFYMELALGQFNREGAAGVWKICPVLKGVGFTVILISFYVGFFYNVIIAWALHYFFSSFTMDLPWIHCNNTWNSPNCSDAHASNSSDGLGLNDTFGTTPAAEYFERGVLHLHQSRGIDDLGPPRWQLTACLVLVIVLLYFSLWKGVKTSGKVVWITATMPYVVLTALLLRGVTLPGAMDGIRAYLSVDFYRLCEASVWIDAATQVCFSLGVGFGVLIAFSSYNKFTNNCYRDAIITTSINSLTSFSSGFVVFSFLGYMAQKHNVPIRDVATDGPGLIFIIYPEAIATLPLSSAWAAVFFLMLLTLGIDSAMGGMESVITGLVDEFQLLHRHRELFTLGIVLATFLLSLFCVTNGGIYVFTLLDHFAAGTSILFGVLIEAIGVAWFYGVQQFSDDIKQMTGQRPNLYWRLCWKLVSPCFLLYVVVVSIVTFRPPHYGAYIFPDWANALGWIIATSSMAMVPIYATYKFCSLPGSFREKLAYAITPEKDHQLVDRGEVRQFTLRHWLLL
Sodium-dependent dopamine transporter (Rattus norvegicus), sequence (P23977 whole entry): as above

Row | Compound | Ki (Rattus norvegicus [1]) | Ki [2] | Ki [6] | other results
1 | COC(=O)[C@@H]1C2CCC(C[C@@H]1OC(=O)c1ccccc1)N2S(=O)(=O)c1ccccc1 (some centres undefined) | 61 µM | 20.8 µM |  | 
2 | COC(=O)[C@@H]1C2CCC(C[C@@H]1OC(=O)c1ccccc1)N2S(=O)(=O)c1ccc([N+](=O)[O-])cc1 (some centres undefined) | 18.8 µM | 5.72 µM |  | inhibition [3]: 80%; inhibition (Rattus norvegicus [4]): 72%
3 | COC(=O)[C@@H]1C2CC[C@@H](C[C@@H]1OC(=O)c1ccccc1)N2S(=O)(=O)N=C=O |  |  | 0.12 µM | Ki (Rattus norvegicus [5]): 0.16 µM
4 | COC(=O)[C@@H]1C2CCC(C[C@@H]1OC(=O)c1ccccc1)N2S(=O)(=O)c1ccc(OC)cc1 (some centres undefined) | 16.4 µM | 6.82 µM |  | 
5 | COC(=O)[C@@H]1C2CCC(C[C@@H]1OC(=O)c1ccccc1)N2S(=O)(=O)C(F)(F)F (some centres undefined) | 0.76 µM | 0.33 µM |  | 
6 | COC(=O)[C@@H]1C2CCC(C[C@@H]1OC(=O)c1ccccc1)N2S(C)(=O)=O (some centres undefined) |  |  | 1.29 µM | Ki (Rattus norvegicus [7]): 1.97 µM
